Source: patent publication US11046682B2, “Fused heterocyclic derivatives, their preparation methods thereof and medical uses thereof” (Beijing Innocare Pharma Tech Co., Ltd., priority 2016, dated 2021)

target: full-length human recombinant IDO1 protein (Homo sapiens (Human), UniProt P14902); test: IDO enzyme activity inhibition testing (Ehrlich method); type: biochemical; details: OD490, 10 concentration points
Experimental: IDO Enzyme Activity Inhibition Testing
The effects of the compounds of the invention on the activity of indoleamine 2,3-dioxygenase (IDO) were evaluated by the Ehrlich method.
The experimental principle is summarized as follows: IDO1 catalyzes oxidation of tryptophan to form N-formyl kynurenine, N-formyl kynurenine is subsequently hydrolyzed by trichloroacetic acid to form kynurenine, and kynurenine further reacts with the Ehrlich reagent to make the solution yellow. The absorbance at 490 nm (OD490) is directly proportional to the activity of IDO1.
The experimental methods are summarized as follows:
The reaction buffer was 50 mM 2-(N-morpholine)ethanesulfonic acid-hydrate (Sigma, Cat. No. 69889); the full-length human recombinant IDO1 protein was purchased from the Tsinghua Protein Research Technology Center and diluted to a 33.6 ng/μL enzyme solution with the reaction buffer; the substrate solution was prepared with the reaction buffer containing 20 mM vitamin C (Sigma, Cat. No. A5960), 150 μM L-tryptophan (Sigma, Cat. No. T0254), 2250 UI/mL catalase (Sigma, Cat. No. C30), and 10 μM methylene blue (Sigma, Cat. No. 28514); the reaction termination solution was 30% (mass/volume) trichloroacetic acid (Sigma, Cat. No. T9159) aqueous solution; the Ehrlich reagent was 2% p-dimethylaminobenzaldehyde (Sigma, Cat. No. 156477) acetic acid (Macklin, Cat. No. A801295) solution.
A compound was dissolved in DMSO (Sigma, Cat. No. D5879) and diluted to 1 mM, then serially diluted 3-fold with DMSO to a minimum concentration of 50.8 nM, and each concentration was further diluted 25-fold with the reaction buffer. If a compound's IC50 value was very low, the initial concentration of the compound was decreased.
A 10-μL compound solution and a 10-μL enzyme solution were added to a 96-well plate (Sigma, Cat. No. CLS3695), mixed well and incubated at room temperature. After 15 min, a 20-μL substrate solution was added and incubated at 60° C. after mixing for 30 min. The reaction plate was equilibrated to room temperature and 60 μL of the Ehrlich reagent was added. After incubation for 15 min, OD490 of each well was measured.
In this experiment, OD490 without enzyme was referred as OD490100% inhibition, and OD490 with enzyme added but without compound was referred as OD4900% inhibition.
Where Y is the percentage of inhibition, Bottom is the bottom platform value of the S-curve, Top is the top platform value of the S-curve, X is the logarithm of the concentration of the test compound, and slope factor is the slope coefficient of the curve.

full-length human recombinant IDO1 protein, sequence (P14902 whole entry): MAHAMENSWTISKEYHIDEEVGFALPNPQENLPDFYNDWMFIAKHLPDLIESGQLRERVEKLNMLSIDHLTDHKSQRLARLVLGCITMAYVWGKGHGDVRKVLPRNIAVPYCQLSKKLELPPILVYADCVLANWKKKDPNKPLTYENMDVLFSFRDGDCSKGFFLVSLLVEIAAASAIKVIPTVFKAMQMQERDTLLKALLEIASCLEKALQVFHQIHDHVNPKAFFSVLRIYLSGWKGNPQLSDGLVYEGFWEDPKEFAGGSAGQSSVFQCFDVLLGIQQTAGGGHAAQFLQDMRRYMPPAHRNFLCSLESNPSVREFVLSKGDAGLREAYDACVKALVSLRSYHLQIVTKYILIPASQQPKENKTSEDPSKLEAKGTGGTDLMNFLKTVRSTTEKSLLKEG

Row | IC50 [nM] | SMILES
1 | < 250 | O=C(Cc1c(-c2ccccc2)ccc2cncn12)Nc1ccc(C(=O)N2CCOCC2)cc1 [Compound 47, N-(4-(morpholine-4-carbonyl)phenyl)-2-(6-phenylimidazo[1,5-a]pyridin-5-yl)acetamide]
2 | < 250 | CC(C)(O)CNCc1c(-c2ccccc2)ccc2cncn12 [Compound 62, 2-methyl-1-(((6-phenylimidazo[1,5-a]pyridin-5-yl)methyl)amino)propan-2-ol]
3 | < 250 | COCCn1cc(-c2ccc(NC(=O)Cc3c(-c4ccccc4)ccc4cncn34)cc2)cn1 [Compound 52, N-(4-(1-(2-methoxyethyl)-1H-pyrazol-4-yl)phenyl)-2-(6-phenylimidazo[1,5-a]pyridin-5-yl)acetamide]
4 | 250 to 1500 | CNC(=O)c1ccc(NC(=O)Nc2c(-c3ccccc3)ccc3cncn23)cc1 [Compound 28, N-methyl-4-(3-(6-phenylimidazo[1,5-a]pyridin-5-yl)ureido)benzamide]
5 | < 250 | N#Cc1ccc(NC(=O)Cc2cc(Cl)cc3cncn23)cc1 [Compound 41, 2-(7-chloroimidazo[1,5-a]pyridin-5-yl)-N-(4-cyanophenyl)acetamide]
6 | < 250 | N#Cc1ccc(N(O)C(=O)Cc2c(-c3ccccc3)ccc3cncn23)cc1 [Compound 45, N-(4-cyanophenyl)-N-hydroxy-2-(6-phenylimidazo[1,5-a]pyridin-5-yl)acetamide]
7 | < 250 | COc1cc(C#N)ccc1NC(=O)Nc1c(-c2ccccc2)ccc2cncn12 [Compound 35, 1-(4-cyano-2-methoxyphenyl)-3-(6-phenylimidazo[1,5-a]pyridin-5-yl)urea]
8 | 250 to 1500 | CC(C)CNCc1c(-c2ccccc2)ccc2cncn12 [Compound 61, 2-methyl-N-((6-phenylimidazo[1,5-a]pyridin-5-yl)methyl)propan-1-amine]
9 | 250 to 1500 | N#Cc1ccc(NC(=O)Nc2cccc3cncn23)cc1 [Compound 1, 1-(4-cyanophenyl)-3-(imidazo[1,5-a]pyridin-5-yl)urea]
10 | < 250 | COc1cc(NC(=O)Nc2c(-c3ccccc3)ccc3cncn23)ccc1C#N [Compound 34, 1-(4-cyano-3-methoxyphenyl)-3-(6-phenylimidazo[1,5-a]pyridin-5-yl)urea]
11 | 250 to 1500 | N#Cc1ccc(NC(=O)Cc2c(-c3ccccc3)ccc3cncn23)c(CO)c1 [Compound 40, N-(4-cyano-2-(hydroxymethyl)phenyl)-2-(6-phenylimidazo[1,5-a]pyridin-5-yl)acetamide]
12 | < 250 | N#Cc1ccc(CNCc2c(-c3ccccc3)ccc3cncn23)cc1 [Compound 42, 4-((((6-phenylimidazo[1,5-a]pyridin-5-yl)methyl)amino)methyl)benzonitrile]
13 | 250 to 1500 | CCOc1ccc2cncn2c1NC(=O)Nc1ccc(C#N)cc1 [Compound 16, 1-(4-cyanophenyl)-3-(6-ethoxyimidazo[1,5-a]pyridin-5-yl)urea]
14 | 250 to 1500 | N#Cc1ccc(NC(=O)Nc2c(-c3ccccc3)ccc3cncn23)nc1 [Compound 33, 1-(5-cyanopyridin-2-yl)-3-(6-phenylimidazo[1,5-a]pyridin-5-yl)urea]
15 | 250 to 1500 | c1ccc(CNCc2c(-c3ccccc3)ccc3cncn23)cc1 [Compound 58, N-benzyl-1-(6-phenylimidazo[1,5-a]pyridin-5-yl)methanamine]
16 | 250 to 1500 | O=C(Nc1ccc(Cl)cc1)Nc1cccc2cncn12 [Compound 3, 1-(4-chlorophenyl)-3-(imidazo[1,5-a]pyridin-5-yl)urea]
17 | 250 to 1500 | O=C(Nc1ccc(C(=O)O)cc1)Nc1c(-c2ccccc2)ccc2cncn12 [Compound 27, 4-(3-(6-phenylimidazo[1,5-a]pyridin-5-yl)ureido)benzoic acid]
18 | 250 to 1500 | O=C(Nc1ccc(C(=O)NCCO)cc1)Nc1c(-c2ccccc2)ccc2cncn12 [Compound 30, N-(2-hydroxyethyl)-4-(3-(6-phenylimidazo[1,5-a]pyridin-5-yl)ureido)benzamide]
19 | 250 to 1500 | COc1ccc2cncn2c1NC(=O)Nc1ccc(C#N)cc1 [Compound 15, 1-(4-cyanophenyl)-3-(6-methoxyimidazo[1,5-a]pyridin-5-yl)urea]
20 | < 250 | N#Cc1ccc(NC(=O)Nc2cc(Cl)cc3cncn23)cc1 [Compound 20, 1-(7-chloroimidazo[1,5-a]pyridin-5-yl)-3-(4-cyanophenyl)urea]
21 | < 250 | N#Cc1ccc(NC(=O)Nc2c(F)ccc3cncn23)cc1 [Compound 14, 1-(4-cyanophenyl)-3-(6-fluoroimidazo[1,5-a]pyridin-5-yl)urea]
22 | < 250 | N#Cc1ccc(NC(=O)Nc2c(-c3ccccc3)ccc3cncn23)cn1 [Compound 32, 1-(6-cyanopyridin-3-yl)-3-(6-phenylimidazo[1,5-a]pyridin-5-yl)urea]
23 | 250 to 1500 | N#Cc1ccc(NC(=O)Cc2cc(Cl)cc3[nH]ncc23)cc1 [Compound 63, 2-(6-chloro-1H-indazol-4-yl)-N-(4-cyanophenyl)acetamide]
24 | < 250 | COC1CCN(C(=O)c2ccc(NC(=O)Cc3c(-c4ccccc4)ccc4cncn34)cc2)CC1 [Compound 48, N-(4-(4-methoxypiperidine-1-carbonyl)phenyl)-2-(6-phenylimidazo[1,5-a]pyridin-5-yl)acetamide]
25 | 250 to 1500 | c1ccc(-c2ccc3cncn3c2CNCC2CCCCC2)cc1 [Compound 59, 1-cyclohexyl-N-((6-phenylimidazo[1,5-a]pyridin-5-yl)methyl)methanamine]
26 | 250 to 1500 | CN(Cc1ccc(C#N)cc1)Cc1c(-c2ccccc2)ccc2cncn12 [Compound 55, 4-((methyl((6-phenylimidazo[1,5-a]pyridin-5-yl)methyl)amino)methyl)benzonitrile]
27 | 250 to 1500 | NC(=O)c1ccc(NC(=O)Nc2c(-c3ccccc3)ccc3cncn23)cc1 [Compound 29, 4-(3-(6-phenylimidazo[1,5-a]pyridin-5-yl)ureido)benzamide]
